Reference: patent publication US9260382B2, “Methods of reducing virulence in bacteria” (priority 2010, dated 2016)
“Also recorded” adds a separate entry of the source.

How the values were obtained:
hrpA promoter (T3SS) [1] = experiment: GFP reporter plasmid phrpA, flow cytometry (FACS) of hrpA promoter activity; type: cell-based, Dickeya dadantii 3937; details: for mean fluorescence intensity of GFP, hrpA expression: D. dadantii 3937 (phrpA), MM + 100 μM compound; for inhibitory activity on T3SS gene (hrpA) expression, in words: D. dadantii 3937, reporter plasmid phrpA, 100 μM; for minimal effective concentration: Dickeya dadantii, read-out: minimal inhibitory concentration on hrpA expression (concentration showing inhibitory effect)
Protocol: (§1) FACS analysis of promoter activity of dspE, hrpA, hrpL, hrpN, and hrpS was carried out as described (Peng et al., 2006). Briefly, the wild-type Ech3937 and the mutant strains carrying the promoter reporter plasmid were grown on LB broth at 28° C. overnight and transferred to appropriate media. For FACS analysis, samples were collected by centrifugation, washed with 1× phosphate buffer saline (PBS) at 13,000 rpm for 1 min, and re-suspended in 1×PBS to ca 10^6 CFU/ml prior to being run in a FACS Calibur flow cytometer (BD Biosciences, CA). Three replicates were performed for each treatment.
To identify potential compounds that repress activation of T3SS, analogs and isomers of TCA and intermediates of salicylic acid and phenypropanoid biosynthesis pathways in plants were further screened for their effect on Ech3937 hrpA expression by flow cytometry (Table 9). A green fluorescent protein (GFP) reporter plasmid phrpA (pProbe-AT derivative with PCR fragment containing hrpA promoter region) was constructed, resulting in a transcriptional fusion of hrpA promoter with GFP gene. Bacterial cells containing phrpA plasmid were grown in MM supplemented with 0.1 mM of each compound. GFP intensity, which is a measurement of hrpA promoter activity, was measured by flow cytometry.
hrpA encodes the T3SS pilus required for protein translocation into plant cells. To test for an inhibitory effect on T3SS hrpA expression, the reporter plasmid phrpA was used to measure the effects of these compounds on hrpA expression. The reporter plasmid phrpA encodes a transcriptional fusion of the hrpA promoter controlling expression of green fluorescent protein (gfp). 50 μL of bacterial suspension of D. dadantii 3937 carrying the hrpA reporter (optical density at 600 nm OD600=1.0) was used as the initial inoculum and added to 5 mL of MM or MM supplemented with 100 μM of one of the compounds. The expression level of hrpA of these bacterial cells was measured by measuring GFP intensity of gated populations of the bacterial cells by flow cytometry and analyzed with Cell Quest software (BD Biosciences, San Jose, Calif.). The fluorescence intensities were an average GFP fluorescence intensity of total bacterial cells. Compounds were assayed two different times (12 and 24 h of bacterial growth) with T3SS minimal media (MM) as the control treatment for each set of experiment. Values presented in Table 14 are mean fluorescence intensity of GFP, representative of two experiments, presented as the average of three replicates with standard deviation (SD).

hrpA promoter (T3SS) [2] = experiment: hrpA promoter-probe phrpA in Erwinia amylovora 273, flow cytometry; type: cell-based; details: Ea273 (phrpA), HIM + 100 μM compound
How it was run: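 Erwinia amylovora 273 carrying an hrpA promoter–GFP fusion (pPROBE-NT) was grown in hrp-inducing medium with 100 μM compound or DMSO. Promoter activity read as GFP intensity by flow cytometry at 6 h and 9 h.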

hrpS promoter = experiment: GFP reporter plasmid phrpS, flow cytometry of hrpS promoter activity; type: cell-based, Dickeya dadantii 3937; details: reporter plasmid phrpS
Protocol: as §1
To test for an inhibitory effect on T3SS hrpS expression, the reporter plasmid phrpS was used to measure the effects of these compounds on hrpA expression.

exoS promoter (T3SS) = experiment: exoS promoter-gfp reporter pATexoS, flow cytometry; type: cell-based, P. aeruginosa PA01; details: for Actual readings of flow cytometry (exoS expression): 6 h, LB with 200 mM NaCl, 10 mM NTA; for Fraction of untreated control (exoS expression): structure-activity table, concentration not given; for effect on exoS promoter activity, in words: screening for T3SS inhibitors
Protocol: (§2) To identify T3SS inhibitors of PA01, a promoter-probe vector pPROBE-AT containing the promoterless green fluorescent protein (gfp) gene was used to construct an exoS promoter-gfp plasmid reporter, pATexoS. PA01 containing pATexoS was cultured in T3SS-inducing medium containing dimethyl sulfoxide (DMSO; solvent of chemical compounds), or supplemented with 250 μM of each compound, and promoter activity was assessed at 6 h by measuring GFP intensity using flow cytometry. 101 compounds (58 synthesized and 43 commercially available) were screened. Compounds 027, 032, 101, and 149 repressed exoS expression at the final concentration of 250 μM by at least one standard deviation below the sample average (Z score≦−1) (FIG. 37 A-E). Z score (or standard score) indicates how many standard deviations an observation or datum is above or below the mean [z=(x−μ)/σ, where x is a raw score to be standardized, μ is the mean of the population, and σ is the standard deviation of the population].
(§3) To determine the effective concentration of compounds, the dose-dependent effect of potential inhibitors on exoS expression and bacterial growth were tested. P. aeruginosa cells carrying pATexoS were pre-cultured in LB supplemented with 200 mM NaCl and transferred to fresh LB with 200 mM NaCl, 10 mM NTA, and various concentrations of compounds (20, 50, 100, and 250 μM) or DMSO for 6 h. […] At 50 μM dosage, both 027 and 101 inhibited exoS expression at similar levels, and this inhibitory effect increased as compound concentration increased (FIG. 38A and Table 17). […] These inhibitions/inductions of exoS expression are caused by the shifting bacterial population between low-state expression cells and high-state expression cells (FIG. 40).

P. aeruginosa = P. aeruginosa bacterial growth with compound; type: cell-based, P. aeruginosa PA01; details: for effect on bacterial growth, in words: P. aeruginosa, 250 μM; for dose-dependent effect on P. aeruginosa growth, in words: various concentrations (up to 250 μM for 101, up to 500 μM for 027), FIG. 39
Protocol: as §2, §3

[3] = Trial 2, MM supplemented with compound at 100 μM
[4] = Trial 1, MM supplemented with compound at 100 μM

SMILES | mean fluorescence intensity of GFP, hrpA expression (hrpA promoter (T3SS) [1]; 12 h) | mean fluorescence intensity of GFP, hrpA expression (hrpA promoter (T3SS) [1]; 24 h) | inhibitory activity on T3SS gene (hrpA) expression, in words (hrpA promoter (T3SS) [1]) | minimal effective concentration (hrpA promoter (T3SS) [1]) | Mean Fluorescence Intensity of GFP (hrpA, phrpA) (hrpA promoter (T3SS) [1]; [3]) | Avg MFI ± SD, hrpA expression (hrpA promoter (T3SS) [2]; 6 h) | Avg MFI ± SD, hrpA expression (hrpA promoter (T3SS) [2]; 9 h) | inhibitory effect on T3SS hrpS expression, in words (hrpS promoter) | Mean Fluorescence Intensity of GFP (hrpA, phrpA) (hrpA promoter (T3SS) [1]; [4]) | Actual readings of flow cytometry (exoS expression) (exoS promoter (T3SS); 20 uM) | Actual readings of flow cytometry (exoS expression) (exoS promoter (T3SS); 50 uM) | Actual readings of flow cytometry (exoS expression) (exoS promoter (T3SS); 100 uM) | Actual readings of flow cytometry (exoS expression) (exoS promoter (T3SS); 250 uM) | Fraction of untreated control (exoS expression) (exoS promoter (T3SS)) | effect on bacterial growth, in words (P. aeruginosa) | dose-dependent effect on P. aeruginosa growth, in words (P. aeruginosa) | effect on exoS promoter activity, in words (exoS promoter (T3SS))
O=C(/C=C/c1c[nH]c2ccccc12)NO [Compound 127, trans-3-Indoleacrylohydroxamic acid] | 21.0 ± 3.0 | 35.1 ± 3.0 | showed inhibitory effect; also recorded: moderate potency | 100 µM | 26.2 ± 2.6 | 91.4 ± 4.9 | 102.7 ± 0.5 | inhibited hrpS |  |  |  |  |  |  |  |  | 
COc1ccc(/C=C/CO)cc1 [Compound 126, trans-4-Methoxycinnamyl alcohol] | 7.8 ± 0.2 | 13.4 ± 0.3 | showed inhibitory effect; also recorded: potent inhibitor | 100 µM | 9.5 ± 0.7 | 386.9 ± 9.4 | 401.4 ± 10.8 | inhibited hrpS |  |  |  |  |  |  |  |  | 
O=C(O)/C=C/c1ccc(Br)cc1 [Compound 111, trans-4-Bromocinnamic acid] | 23.9 ± 5.2 | 54.7 ± 7.2 | showed inhibitory effect; also recorded: moderate potency |  |  | 102.8 ± 23.5 | 61.8 ± 4.2 | inhibited hrpS | 16.5 ± 0.8 |  |  |  |  |  |  |  | 
COC(=O)/C=C/c1ccc(O)cc1 [Compound 101, Methyl para-coumate] | 17.5 ± 0.7 | 19.9 ± 0.5 |  | 100 µM |  | 1443.4 ± 49.4 | 1227.8 ± 41.6 |  |  | 122.82 ± 2.89 | 106.83 ± 3.09 | 100.10 ± 1.33 | 81.88 ± 2.41 | 0.65 ± 0.03 |  |  | 
CCOC(=O)[C@@H]1C[C@H]1c1ccc(O)cc1 (relative stereo) [Compound 106, Ethyl trans-2-(4-hydroxyphenyl)-1-cyclopropanecarboxylate] | 10.5 ± 0.8 | 49.4 ± 4.1 | showed inhibitory effect; also recorded: strong inhibitory potency | 100 µM |  | 1289.3 ± 46.5 | 1110.9 ± 67.5 | inhibited hrpS | 9.4 ± 0.1 |  |  |  |  |  |  |  | 
O=C(NO)c1ccccc1 [Compound 134, Benzhydroxamic acid] |  |  |  |  |  | 679.0 ± 12.7 | 921.6 ± 10.3 |  |  | 157.22 ± 7.94 | 199.21 ± 3.06 | 289.53 ± 3.74 | 411.72 ± 2.70 |  | some inhibition on bacterial growth | inverse relationship was observed between the compound concentration and bacterial growth | 
O=C(/C=C/c1ccccc1)NO [Compound 132, trans-Cinnamohydroxamic acid] |  |  |  |  |  | 145.7 ± 1.2 | 147.8 ± 4.2 |  |  |  |  |  |  | 1.53 ± 0.19 |  |  | little or no effect on exoS promoter activity
O=C(/C=C/c1cccc(Cl)c1)NO [Compound 149, trans-3-Chlorocinnamohydroxamic acid] |  |  |  |  |  | 31.2 ± 34.1 | 21.7 ± 28.5 |  |  |  |  |  |  |  | minor alterations in bacterial growth |  | 
CNC(=O)/C=C/c1ccc(O)cc1 [Compound 137, N-Methyl-4-hydroxycinnamamide] |  |  |  |  |  | 1064.1 ± 99.3 | 1121.1 ± 52.1 |  |  |  |  |  |  | 0.92 ± 0.05 |  |  | little or no effect on exoS promoter activity
Nc1ccc(/C=C/C(=O)O)cc1 [Compound 027, trans-4-Aminocinnamic acid] |  |  |  |  |  | 255.6 ± 7.4 | 132.1 ± 8.5 |  |  | 102.07 ± 0.54 | 97.23 ± 0.72 | 78.66 ± 2.69 | 72.16 ± 1.13 | 0.66 ± 0.04 | minor alterations in bacterial growth | only minor effects on bacterial growth | 
OC/C=C/c1ccccc1 [Compound 032, Cinnamyl alcohol] |  |  |  |  |  | 681.6 ± 217.9 | 784.0 ± 53.3 |  |  |  |  |  |  |  | minor alterations in bacterial growth |  | 
